# Results: ChEMBL document CHEMBL1152896, “Design and in silico screening of combinatorial library of antimalarial analogs of triclosan inhibiting Plasmodium falciparum enoyl-acyl carrier protein reductase” (Eur J Med Chem, 2009)
# Biological target: T1, Enoyl-acyl-carrier protein reductase (Plasmodium falciparum, UniProt Q965D5)
# T1 sequence (Q965D5 whole entry): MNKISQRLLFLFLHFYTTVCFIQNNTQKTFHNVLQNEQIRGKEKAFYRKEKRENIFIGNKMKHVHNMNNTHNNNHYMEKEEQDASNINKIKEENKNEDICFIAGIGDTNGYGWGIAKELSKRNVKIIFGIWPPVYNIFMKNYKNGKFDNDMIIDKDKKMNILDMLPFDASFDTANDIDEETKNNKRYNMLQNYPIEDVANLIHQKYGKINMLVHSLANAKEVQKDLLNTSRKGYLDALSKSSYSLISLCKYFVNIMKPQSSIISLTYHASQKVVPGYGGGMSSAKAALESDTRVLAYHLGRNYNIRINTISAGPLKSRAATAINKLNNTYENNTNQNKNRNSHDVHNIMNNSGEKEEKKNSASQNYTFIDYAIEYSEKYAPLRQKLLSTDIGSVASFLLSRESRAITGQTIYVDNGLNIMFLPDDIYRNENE
# Experiment: Inhibition of Plasmodium falciparum enoyl-acyl carrier protein reductase expressed in Escherichia coli BL21(DE3) by spectrophotometry
structure (smiles),measurement,value
Oc1cc(Cl)ccc1Oc1ccc(Cl)cc1Cl [TRICLOSAN],Ki,50 nM
